{
  "source": "patent US20200337992A1",
  "about": "“Auricular Cleaning Composition” (priority 2015, published 2020)",
  "assay": "In vitro cerumenolytic effect test on synthetic cerumen",
  "conditions": "for % of cerumen removed: Table 3, total after four successive applications; for cerumenolytic activity / cerumenolytic effect: cf. FIG. 1, in vitro test",
  "procedure": "Thus, the selected formula of the synthetic cerumen which makes it possible to evaluate the in vitro cerumenolytic effect of agents is the following: [table] In order to select a new combination of cerumenolytic agents, the cerumenolytic effect test was employed using the cerumen described in the table above. […] The distribution is carried out in such a way that the cerumen is present only in the bottom of the tube and not on the edges or the opening, which could distort the results. The tubes are then left to stand for the amount of time required for the cerumen to solidify. The distribution is carried out the day before the in vitro test in order to leave the cerumen with a minimum of 24 h to cool and solidify. The dimensions of the test tube, the temperature at which the test was carried out and the amount of synthetic cerumen were chosen to represent as faithfully as possible, in vitro, the dog ear canal. According to these parameters, the procedure followed for measuring the in vitro effectiveness of an agent or of a combination of agents having a cerumenolytic effect is the following: =>The test tube containing only the cerumen is weighed before the test. […] =>The test tube is then attached to a stirring turbine and immersed in a bath of water heated to 35° C. (the water height is sufficient for the content of the tube (cerumen+test product) to be immersed. =>The stirring is maintained for 20 minutes at 50 rpm. […] This step makes it possible to remove the product and the cerumen debris detached by the cerumenolytic agent. =>At the end of the time elapsed, the tube is weighed to evaluate the amount of cerumen removed. =>This process is carried out four times in a row, on each same tube, in order to simulate and evaluate the application number required to remove the cerumen plug present in the dog ear canal. Each time, the cerumen remaining at the bottom of the tube is dried and then weighed. […] As previously indicated, in order to check the effectiveness of an agent, the test tubes are weighed before the test is carried out and after the phase of leaving to stand upside down for 1 h. The removal of the cerumen is, according to this process, evaluated as for this example: =>Weight of the tube A before test 1: 3.493 g and weight of the tube A after test 1: 3.449 g =>Percentage of cerumen removed: […] The percentages are thus calculated for each test: from 1 to 4. The total percentage of cerumen removed is obtained after having repeated the operation successively four times for one and the same tube.",
  "key": {"[1]": {"conditions": "500 mg synthetic cerumen, 2 ml test product, 35° C., 20 minutes at 50 rpm"}},
  "data": [
    {"smiles": "CC(C)O", "note": "[100% Isopropyl alcohol, isopropyl alcohol]", "values": [
      {"measurement": "% of cerumen removed", "setting": "[1]", "result": 66, "unit": "%"},
      {"measurement": "cerumenolytic activity / cerumenolytic effect", "result": "about 60%"}
    ]},
    {"smiles": "CCOCCOCCO", "note": "[100% Transcutol ®, 2-(2-ethoxyethoxy)ethanol]", "values": [
      {"measurement": "% of cerumen removed", "setting": "[1]", "result": 100, "unit": "%"},
      {"measurement": "% cerumen removed (after test 4)", "setting": "Table 4, 500 mg synthetic cerumen, 2 ml test product, 35° C., 20 minutes at 50 rpm, after test 4", "result": 100.0, "unit": "%"},
      {"measurement": "cerumenolytic activity / cerumenolytic effect", "result": "~100", "unit": "%"}
    ]}
  ]
}
